ChEMBL document CHEMBL1201862, “PubChem BioAssay data set” (2004)
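Five compound concentrations were applied to cells in 96-well plates for 48 hours; endpoints were derived by simple linear interpolation of the resulting dose-response curve. GI50 is the concentration that inhibits growth by half.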 Calls of active or inactive are those of the source. Cut-off read from the data, not from the text of the source: active = GI50 up to about 1.1 µM and inactive = higher.

What was measured:
Assay in all cases: DTP human tumour cell line panel, 48 h
OVCAR-4 = system: OVCAR-4
PC-3 = system: PC-3
HOP-92 = system: HOP-92
SR = system: SR
MCF7 = system: MCF7
K562 = system: K562
SF-539 = system: SF-539
CCRF-CEM = system: CCRF-CEM
UO-31 = system: UO-31
SNB-19 = system: SNB-19
IGROV-1 = system: IGROV-1
NCI-H23 = system: NCI-H23
OVCAR-5 = system: OVCAR-5
A498 = system: A498
M14 = system: M14
UACC-62 = system: UACC-62
LOX IMVI = system: LOX IMVI
UACC-257 = system: UACC-257
SK-MEL-5 = system: SK-MEL-5
786-0 = system: 786-0
RXF 393 = system: RXF 393
U-251 = system: U-251
HOP-62 = system: HOP-62
T47D = system: T47D
SK-MEL-28 = system: SK-MEL-28
SNB-75 = system: SNB-75
SK-MEL-2 = system: SK-MEL-2
SN12C = system: SN12C
OVCAR-3 = system: OVCAR-3
HCT-15 = system: HCT-15
HCC 2998 = system: HCC 2998
OVCAR-8 = system: OVCAR-8
CAKI-1 = system: CAKI-1
NCI-H460 = system: NCI-H460
ACHN = system: ACHN
MDA-MB-435 = system: MDA-MB-435
HCT-116 = system: HCT-116
DU-145 = system: DU-145
MDA-MB-231 = system: MDA-MB-231
COLO 205 = system: COLO 205
RPMI-8226 = system: RPMI-8226
BT-549 = system: BT-549
SF-295 = system: SF-295
A549 = system: A549
KM12 = system: KM12
NCI/ADR-RES = system: NCI/ADR-RES
MOLT-4 = system: MOLT-4
NCI-H226 = system: NCI-H226
SW-620 = system: SW-620
EKVX = system: EKVX
SF-268 = system: SF-268
Malme-3M = system: Malme-3M

## CCOC(=O)c1cn(C)c(=S)n2c1nc1ccccc12
OVCAR-4
  GI50: 34.8 µM (inactive)
PC-3
  GI50: 48.1 µM (inactive)
HOP-92
  GI50: 42.8 µM (inactive)
SR
  GI50: 62.5 µM (inactive)
MCF7
  GI50: 44.6 µM (inactive)
K562
  GI50: > 100 µM (inactive)
SF-539
  GI50: > 100 µM (inactive)
CCRF-CEM
  GI50: 48.2 µM (inactive)
UO-31
  GI50: 4.73 µM (inactive)
SNB-19
  GI50: 83.8 µM (inactive)
IGROV-1
  GI50: 34.3 µM (inactive)
NCI-H23
  GI50: 91.8 µM (inactive)
OVCAR-5
  GI50: > 100 µM (inactive)
A498
  GI50: 22.3 µM (inactive)
M14
  GI50: > 100 µM (inactive)
UACC-62
  GI50: 21.8 µM (inactive)
LOX IMVI
  GI50: 56 µM (inactive)
UACC-257
  GI50: > 100 µM (inactive)
SK-MEL-5
  GI50: 86.7 µM (inactive)
786-0
  GI50: 74.1 µM (inactive)
RXF 393
  GI50: > 100 µM (inactive)
U-251
  GI50: > 100 µM (inactive)
HOP-62
  GI50: > 100 µM (inactive)
T47D
  GI50: > 100 µM (inactive)
SK-MEL-28
  GI50: > 100 µM (inactive)
SNB-75
  GI50: > 100 µM (inactive)
SK-MEL-2
  GI50: 40.2 µM (inactive)
SN12C
  GI50: > 100 µM (inactive)
OVCAR-3
  GI50: > 100 µM (inactive)
HCT-15
  GI50: 91 µM
HCC 2998
  GI50: > 100 µM (inactive)
OVCAR-8
  GI50: 30.8 µM (inactive)
CAKI-1
  GI50: 91.4 µM (inactive)
NCI-H460
  GI50: 45.6 µM (inactive)
ACHN
  GI50: 49.1 µM (inactive)
MDA-MB-435
  GI50: > 100 µM (inactive)
HCT-116
  GI50: 54.3 µM (inactive)
DU-145
  GI50: > 100 µM (inactive)
MDA-MB-231
  GI50: 91.8 µM (inactive)
COLO 205
  GI50: > 100 µM (inactive)
RPMI-8226
  GI50: 30.9 µM (inactive)
BT-549
  GI50: 97.3 µM (inactive)
SF-295
  GI50: 59.4 µM (inactive)
A549
  GI50: 62.1 µM (inactive)
KM12
  GI50: 98.9 µM (inactive)
NCI/ADR-RES
  GI50: 37.8 µM (inactive)
MOLT-4
  GI50: 95.7 µM (inactive)
NCI-H226
  GI50: 60.7 µM (inactive)
SW-620
  GI50: > 100 µM (inactive)
EKVX
  GI50: > 100 µM (inactive)

## CC[C@@]1(O)C(=O)OCc2c1cc1n(c2=O)Cc2c-1nc1ccccc1c2/C=N/c1ccccc1N[C@@H]1c2cc3c(cc2[C@@H](c2cc(OC)c(O)c(OC)c2)[C@H]2C(=O)OC[C@@H]21)OCO3
OVCAR-4
  GI50: 0.427 µM (active)
PC-3
  GI50: 0.164 µM (active)
HOP-92
  GI50: 0.209 µM (active)
SR
  GI50: < 0.005 µM (active)
MCF7
  GI50: 0.00684 µM (active)
CCRF-CEM
  GI50: < 0.005 µM (active)
M14
  GI50: 0.0239 µM (active)
UACC-62
  GI50: 0.014 µM (active)
LOX IMVI
  GI50: 0.0194 µM (active)
UACC-257
  GI50: 0.278 µM (active)
SK-MEL-5
  GI50: 0.0532 µM (active)
786-0
  GI50: 0.0142 µM (active)
U-251
  GI50: 0.188 µM (active)
SF-268
  GI50: 0.0161 µM (active)
HOP-62
  GI50: 0.0103 µM (active)
T47D
  GI50: 0.014 µM (active)
SNB-75
  GI50: 0.028 µM (active)
HCC 2998
  GI50: 0.148 µM (active)
CAKI-1
  GI50: 0.0204 µM (active)
ACHN
  GI50: 0.0106 µM (active)
HCT-116
  GI50: 0.0527 µM (active)
DU-145
  GI50: 0.00767 µM (active)
MDA-MB-231
  GI50: 1.05 µM (active)
RPMI-8226
  GI50: 0.175 µM (active)
BT-549
  GI50: 0.269 µM (active)
A549
  GI50: 0.0351 µM (active)
Malme-3M
  GI50: 0.329 µM (active)
NCI-H226
  GI50: 0.0362 µM (active)
SW-620
  GI50: 0.157 µM (active)
